Here are results for one molecule from ChEMBL document CHEMBL4828739, “Study on the structure-activity relationship of dihydroartemisinin derivatives: Discovery, synthesis, and biological evaluation of dihydroartemisinin-bile acid conjugates as potential anticancer agents” (Eur J Med Chem, 2021).

Holding throughout (type): ADME, organism-based
Series [1] in a line: Clearance in Sprague-Dawley rat plasma at 5 mg/kg, iv by UPLC-MS/MS analysis.
Series [2] is described as follows: Volume of distribution at steady state in Sprague-Dawley rat plasma at 5 mg/kg, iv by UPLC-MS/MS analysis. Particulars: read-out: Vdss.
A short description of series [3]: Half life in Sprague-Dawley rat plasma at 5 mg/kg, iv by UPLC-MS/MS analysis.
A short description of series [4]: AUClast in Sprague-Dawley rat plasma at 5 mg/kg, iv by UPLC-MS/MS analysis. On the set-up: route intravenous, time 0 - last, dose 5 mg/kg.
The nature of series [5]: AUC (0 to infinity) in Sprague-Dawley rat plasma at 5 mg/kg, iv by UPLC-MS/MS analysis. On the set-up: route intravenous, time infinity, dose 5 mg/kg.
Series [6] in a line: MRT (0 to infinity) in Sprague-Dawley rat plasma at 5 mg/kg, iv by UPLC-MS/MS analysis.
Series [7] in a line: Tmax in Sprague-Dawley rat plasma at 10 mg/kg, po by UPLC-MS/MS analysis.
Series [8] can be described thus: Cmax in Sprague-Dawley rat plasma at 10 mg/kg, po by UPLC-MS/MS analysis. More on the design: route oral, dose 10 mg/kg.
A short description of series [9]: Half life in Sprague-Dawley rat plasma at 10 mg/kg, po by UPLC-MS/MS analysis.
Series [10] in a line: AUClast in Sprague-Dawley rat plasma at 10 mg/kg, po by UPLC-MS/MS analysis. More on the design: route oral, time 0 - last, dose 10 mg/kg.
Series [11] is described as follows: AUC (0 to infinity) in Sprague-Dawley rat plasma at 10 mg/kg, po by UPLC-MS/MS analysis. More on the design: time infinity, route oral, dose 10 mg/kg.
The nature of series [12]: Oral bioavailability in Sprague-Dawley rat plasma at 10 mg/kg by UPLC-MS/MS analysis.

In the case of `C[C@H]1[C@@H](O[C@@H]2CC[C@@]3(C)[C@@H](C2)C[C@H](O)[C@@H]2[C@@H]3CC[C@]3(C)[C@@H]([C@H](C)CCC(=O)O)CC[C@@H]23)O[C@@H]2O[C@]3(C)CC[C@H]4[C@H](C)CC[C@@H]1[C@@]24OO3`, the clearance (commonly the volume of plasma or blood freed of the substance per unit of time) in [1] was 8.2 mL/min/kg. Further, in [2], the Vd worked out at 0.346 L/kg. In addition, the half-life (commonly the time needed for the level to fall by half in the phase considered) in series [3] was 46.4 min; in series [9], 49.4 min. Moreover, the figures for the exposure AUC(0-t) in [4] and in [10] were 10200 ng·h/mL and 4190 ng·h/mL, respectively. In addition, the figures for the AUC(0-inf) in series [5] and in series [11] were 10200 ng·h/mL and 4430 ng·h/mL, respectively. Further, the MRT inf – broadly, a mean duration of stay, worked out from the concentration-time curve – in series [6] was 42.2 min. For the same molecule, in series [7], the time of peak concentration (Tmax) (commonly the time from dosing to the highest level) was found to be 100 min. In addition, the highest level in series [8] (Cmax) was 1110 ng/mL. Moreover, in series [12], the bioavailability (in general, the share of a dose that reaches the circulation, judged against a reference dose that is usually intravenous) is 20.6%.
